Experiments:
[1] = tested on: several mammalian cell types; conditions: cited from earlier work
neonatal cardiomyocytes = assay: Mitosox mitochondrial superoxide in Angiotensin II-stimulated neonatal cardiomyocytes (flow cytometry); assay type: cell-based, mouse; conditions: NAC 0.5 mM, Angiotensin II 1 μM for 3 hours, Mitosox fluorescence
Experimental: Ventricles from mouse neonates younger than 72 hours will be dissected, minced, and enzymatically digested with Blendzyme 4 (45 mg/mL, Roche). After enzymatic digestion, cardiomyocytes will be enriched using differential pre-plating for 2 hours, and seeded on fibronectin-coated culture dishes for 24 hours in DMEM (Gibco) with 20% Fetal Bovine Serum (Sigma) and 25 μM Arabinosylcytosine (Sigma). Cardiomyocytes will be stimulated with Angiotensin II (1 μM) for 3 hours in serum-free DMEM containing 0.5% insulin transferrin-selenium (Sigma), 2 mM glutamine, and 1 mg/mL BSA. […] Samples will be analyzed using excitation/emission of 488/625 nm by flow cytometry. Flow data will be analyzed using FCS Express (De Novo Software, Los Angeles, Calif., U.S.A.), and presented as histogram distributions of Mitosox fluorescence intensity.

Molecule	penetration of the plasma membrane [1]	effect on the level of mitochondrial ROS after Ang II (neonatal cardiomyocytes)
2′,6′-Dmt-D-Arg-Phe-Lys-NH2	readily penetrates the plasma membrane of several mammalian cell types in an energy-independent manner	–
CC(=O)N[C@@H](CS)C(=O)O [N-acetyl cysteine]	–	not show any effect
